Entries after “also recorded” stand apart in the source; their conditions may differ.
How the values were obtained:
Assay type in all cases: cell-based, cow
mammary epithelial cells [1] = assay: Cellular triglyceride and phospholipid content and composition by HPLC-ELSD after 24 h progesterone
Method: To examine the effect of progesterone on MFG formation, secretion and size, the culture medium was supplemented with very low-density lipoprotein (VLDL) and progesterone at different concentrations (0, 1, 5 and 20 ng/ml). Progesterone concentrations were based on those found in the plasma during the luteal and follicular phases in vivo. After 24 h, cells were either fixed for lipid droplet size analysis (detailed below (or harvested with trypsin (0.05% w/v), sedimented by centrifugation, and washed with 0.9 gr/L NaCl.
For lipid extraction and analysis, 150,000 MEC were plated in a 60-mm plastic dish. For Nile red fluorescence staining, 50,000 MEC were plated in a 6-well plate on glass cover slips. After 24 h incubation, the culture medium was replaced with DMEM/F12 without serum, containing 0.15% (w/v) free fatty acids-free BSA and insulin (1 μg/ml), hydrocortisone (0.5 μg/ml) and prolactin (1 μg/ml). Cells were incubated for 48 h to induce milk lipid and protein synthesis.
(§1) Lipids were extracted by the Folch protocol. Briefly, each cell sample was incubated for 1 h with “Folch mixture” (chloroform:methanol, […] volumetric ratio). The organic phase was separated by addition of double-distilled water (DDW) and overnight incubation at 4° C. The upper phase was then removed, and the lower phase filtered through glass wool. The lower phase was evaporated under nitrogen and then dissolved in chloroform:methanol (3:97). Samples were kept at −20° C. until further analysis.
High-pressure liquid chromatography (HPLC) was performed in an HPLC 1200 (Agilent Technology) equipped with evaporative light-scattering detector. Tg, cholesterol and PL were identified using external standards (Sigma Aldrich). Quantification was performed against external standard curves and expressed as μg/106 live cells or as weight % of the total PL (μg) in the sample. The number of live cells was determined with a hemocytometer after Trypan blue staining.

mammary epithelial cells [2] = assay: Increasing or decreasing progesterone concentrations with or without VLDL in the culture medium: lipid droplet number and cellular phenotype
Method: To determine whether the effect of progesterone on lipid droplet size is mediated by the presence of VLDL, a b-factorial experiment was performed. MEC were cultured with increasing or decreasing progesterone concentrations in the presence or absence of VLDL in the culture medium. This study was aimed to provide indirect evidence of lipoprotein lipase (LPL) activity, acting on VLDL and providing the MEC with exogenous, preformed fatty acids. After 48 h of incubation, cells were fixed and stained with Nile red and intracellular lipid droplet size was determined. Cells were grown on glass cover slips, washed three times with phosphate buffered saline (PBS) and fixed with 4% paraformaldehyde in PBS for 20 min at room temperature. Then the cells were washed four times with PBS, stained with Nile red (200 nM) and incubated for 15 min. Cover slips were then washed three times with PBS and stained with DAPI for 5 min. Cover slips were washed four more times with PBS and mounted on a slide with fluorescent mounting medium (Dako North America Inc., Carpinteria, CA). The slides were visualized under an Olympus BX40 fluorescence microscope equipped with an Olympus DP73 digital camera using CellSens Entry software (version 1.7, Olympus). Lipid droplet diameter was measured using ImageJ software (version 1.48, NIH, Bethesda, MD). Lipid droplet diameter was divided into three size categories: small (<1 μm), medium (1 μm<x<2 μm) and large (>2 μm).

mammary epithelial cells [3] = assay: Lipid droplet number and size in primary mammary epithelial cells exposed 48 h to increasing or decreasing progesterone concentrations
Method: The effect of progesterone concentration pattern during the estrous cycle on lipid droplet size was also tested. Primary mammary epithelial cells were exposed for 48 h to either increasing (0.75, 2.5 and 5 ng/ml) progesterone concentrations or decreasing (5, 2.5 and 0.75 ng/ml) progesterone concentrations. The concentrations were increased or decreased at specific times to reflect the progesterone pattern during the increasing and decreasing phases of the estrus cycle, i.e. the cells were exposed to increasing concentrations of 0.75, 2.5 and 5 ng/ml progesterone at 0, 17 and 28 h, respectively and cells were exposed to decreasing concentrations of 5, 2.5 and 0.75 ng/ml progesterone at 0, 28 and 34 h, respectively. Cells were then fixed and stained with nile-red. Four slides were prepared for each treatment and lipid droplets were counted and measured under fluorescence microscope. The experiment was repeated twice.
For the in-vitro study, primary culture of MEC was performed according to a protocol established described in [1]. Briefly, mammary tissue was collected from lactating cows in a commercial slaughterhouse and immediately transferred to ice-cold growth medium with 1000 U/ml penicillin, 1 mg/ml streptomycin, 2.5 μg/ml amphotericin mixture, and 0.02 mg/ml heparin. Mammary tissue was digested in medium with 1 mg/ml collagenase, 1 mg/ml hyaluronidase and 0.02 mg/ml heparin, for 3 h at 37° C. After incubation, the suspension was filtered through a metal mesh (250 μm). Sediments were treated with trypsin-EDTA solution and filtered through a 100-μm cell strainer (BD Falcon, Bedford, MA). Then, the cells were grown in plastic culture dishes with DMEM/F12 supplemented with 10% (w-/v) fetal bovine serum, 100 U/ml penicillin, 100 μg/ml streptomycin, 0.25 μg/ml amphotericin B, 1 μg/ml insulin and […] hydrocortisone. The medium was changed every 48 h.
To determine whether the absolute progesterone concentration or its pattern (i.e., increasing or decreasing) affects MFG, cells were treated for 48 h with increasing doses of progesterone: 0.75, 2.5 and 5 ng/ml. The culture medium was replaced after 11, 17, and 20 h, respectively, aimed to mimic the in-vivo luteal phase. The decreasing phase consisted of exposure to 5, 2.5 and 0.75 ng/ml progesterone. Culture medium was replaced after 8, 12 and 28 h, respectively, to mimic the follicular phase.
Cells were grown on glass cover slips, washed three times with phosphate buffered saline (PBS) and fixed with 4% paraformaldehyde in PBS for 20 min at room temperature. […] The slides were visualized under an Olympus BX40 fluorescence microscope equipped with an Olympus DP73 digital camera using CellSens Entry software (version 1.7, Olympus). Lipid droplet diameter was measured using ImageJ software (version 1.48, NIH, Bethesda, MD). […]

mammary epithelial cells [4] = assay: Lipid droplet number and size in primary mammary epithelial cells incubated 24 h with fixed progesterone concentrations (Nile red/DAPI fluorescence microscopy)
Method: Epithelial cells were isolated for mammary biopsies according to the method described in [3]. Cells were incubated for 24 h with 0, 1, 5, and 20 ng/ml progesterone. Cells were then fixed with 4% paraformaldehyde and nucleus and lipid droplets were stained with Dapi and Nile red (Sigma Aldrich, Israel), respectively. Four slides were prepared for each treatment and were visualized with an Olympus BX40 fluorescence microscope equipped with an Olympus DP73 digital camera using CellSens Entry software version 1.7. The lipid droplets of 6-10 cells on each slide were counted and measured using ImageJ software. The experiment was repeated twice. For the in-vitro study, primary culture of MEC was performed according to a protocol established described in [1]. Briefly, mammary tissue was collected from lactating cows in a commercial slaughterhouse and immediately transferred to ice-cold growth medium with 1000 U/ml penicillin, 1 mg/ml streptomycin, 2.5 μg/ml amphotericin mixture, and 0.02 mg/ml heparin. Mammary tissue was digested in medium with 1 mg/ml collagenase, 1 mg/ml hyaluronidase and 0.02 mg/ml heparin, for 3 h at 37° C. After incubation, the suspension was filtered through a metal mesh (250 μm). Sediments were treated with trypsin-EDTA solution and filtered through a 100-μm cell strainer (BD Falcon, Bedford, MA). Then, the cells were grown in plastic culture dishes with DMEM/F12 supplemented with 10% (w-/v) fetal bovine serum, 100 U/ml penicillin, 100 μg/ml streptomycin, 0.25 μg/ml amphotericin B, 1 μg/ml insulin and […] hydrocortisone. The medium was changed every 48 h. To examine the effect of progesterone on MFG formation, secretion and size, the culture medium was supplemented with very low-density lipoprotein (VLDL) and progesterone at different concentrations (0, 1, 5 and 20 ng/ml). Progesterone concentrations were based on those found in the plasma during the luteal and follicular phases in vivo. After 24 h, cells were either fixed for lipid droplet size analysis (detailed below (or harvested with trypsin (0.05% w/v), sedimented by centrifugation, and washed with 0.9 gr/L NaCl. For lipid extraction and analysis, 150,000 MEC were plated in a 60-mm plastic dish. For Nile red fluorescence staining, 50,000 MEC were plated in a 6-well plate on glass cover slips. After 24 h incubation, the culture medium was replaced with DMEM/F12 without serum, containing 0.15% (w/v) free fatty acids-free BSA and insulin (1 μg/ml), hydrocortisone (0.5 μg/ml) and prolactin (1 μg/ml). Cells were incubated for 48 h to induce milk lipid and protein synthesis. Cells were grown on glass cover slips, washed three times with phosphate buffered saline (PBS) and fixed with 4% paraformaldehyde in PBS for 20 min at room temperature. Then the cells were washed four times with PBS, stained with Nile red (200 nM) and incubated for 15 min. Cover slips were then washed three times with PBS and stained with DAPI for 5 min. Cover slips were washed four more times with PBS and mounted on a slide with fluorescent mounting medium (Dako North America Inc., Carpinteria, CA). The slides were visualized under an Olympus BX40 fluorescence microscope equipped with an Olympus DP73 digital camera using CellSens Entry software (version 1.7, Olympus). Lipid droplet diameter was measured using ImageJ software (version 1.48, NIH, Bethesda, MD). Lipid droplet diameter was divided into three size categories: small (<1 μm), medium (1 μm<x<2 μm) and large (>2 μm).

mammary epithelial cells [5] = assay: Fatty acid distribution between triglyceride and phospholipid fractions (TLC and gas chromatography) after 24 h progesterone
Method: as §1
Lipid separation was performed by thin-layer chromatography and gas chromatography analysis. For the thin-layer chromatography, silica gel was spread on glass plates and activated at 105° C., 24 h before the analysis. After cooling, the cell samples, extracted by Folch protocol, were loaded into the plates along with triglyceride (Tg) and phospholipids (PL) standards. The plates were inserted into a tank with a mixture of petroleum ether, […] and acetic acid (8:2:1 volometric ratio) for 30 min, then sprayed with 0.05% v/v dichlorofluorescein in ethanol) and examined under UV light. The detected lipid segments were then separated from the plates into methylation mixture (5% v/v H2SO4 in methanol) for 1 h incubation at 65° C. Then, 1.5 ml petroleum-ether and 3 ml DDW were added to each sample. The upper phase was collected into a new vial and the organic solvent was evaporated with nitrogen. Then 100 μl petroleum-ether was added to each sample for fatty acid analysis in a gas chromatograph model 6890N, equipped with a flame-ionization detector and DB-23 capillary silica (0.25-μm film; Agilent Technology, Wilmington, DE). The analysis was performed according to a protocol established as described in [18]. Peaks were identified with Chemstation software (Agilent Technology). The concentrations of fatty acids are given as molar percentages of the total molar sum of the identified fatty acids. Fatty acids were classified according to chemical characteristics such as double bonds and carbon-chain length.

`CC(=O)[C@H]1CC[C@H]2[C@@H]3CCC4=CC(=O)CC[C@]4(C)[C@H]3CC[C@]12C` [progesterone] was tested, and the “membrane PL composition (PI, PE, PS, PC, SM)” value (mammary epithelial cells [1]; 0, 1, 5 and 20 ng/ml progesterone, 24 h) was “did not affect”, the “concentration of Tg (cellular triglyceride content)” value (mammary epithelial cells [1]; 0, 1, 5 and 20 ng/ml progesterone, 24 h, FIG. 17A) was “not affected by progesterone” and the “increase in concentration of the measured PL” value (mammary epithelial cells [1]; 1 ng/ml compared to 0, 5 and 20 ng/ml progesterone, 24 h, P<0.05) was “approximately 1.3 fold”. For the same compound, the PL amount (mammary epithelial cells [1]; 5 ng/ml progesterone, 24 h, P<0.05) was “tended to decrease”, the “PC concentration (elevated)” value (mammary epithelial cells [1]; progesterone 24 h, apparently the 1 ng/ml treatment, P<0.05) was 20 μg/106 cells and the “differences in lipid droplet number and cellular phenotype between increasing and decreasing progesterone” value (mammary epithelial cells [2]; absence of VLDL) was “no differences were found”. The “increase in MEC with large lipid droplets (>1 μm)” value (mammary epithelial cells [2]; decreasing progesterone concentration model with VLDL, P<0.0001) was 4 fold, the “increase in proportion of MEC with small lipid droplets (<1 μm)” value (mammary epithelial cells [2]; increasing progesterone concentration model with VLDL) was 2.4 fold and the “average number of lipid droplets per field” value (mammary epithelial cells [2]; increasing progesterone concentration with VLDL vs other treatments, FIG. 20B, P<0.0001) was “Highest number of lipid droplets”. The “proportion of large lipid droplets (>2 μm) of the total number of lipid droplets” value (mammary epithelial cells [3]; decreasing ('down') compared to increasing ('up') progesterone concentrations, 48 h, FIG. 6, P=0.03) was 2 fold, the “increase in the number of lipid droplets” value (mammary epithelial cells [3]; increasing (0.75, 2.5, 5 ng/ml, 'up') relative to decreasing (5, 2.5, 0.75 ng/ml, 'down') progesterone, 48 h, FIG. 5, P<0.0001) was 5.5 fold and the “increase in the large lipid droplets” value (mammary epithelial cells [3]; increasing progesterone concentration 'compared to the increasing progesterone pattern' (so in the source), P<0.0001) was 3 fold. The “large lipid droplet phenotype (cells with droplets x>1 μm)” value (mammary epithelial cells [3]; increasing vs decreasing progesterone, FIG. 19C) was “only visualized in cells treated with increasing progesterone levels”, the “proportion of large droplets (>1 μm)” value (mammary epithelial cells [4]; 0, 1 or 20 ng/ml progesterone, 24 h) was ≤ 20% and the “proportion of droplets larger than 1 μm” value (mammary epithelial cells [4]; 5 ng/ml progesterone, 24 h) was “over 40%”. The “number of lipid droplets” value (mammary epithelial cells [4]; 5 ng/ml progesterone, 24 h, vs control) was “did not differ from the control”, the “rate of large droplets (>1 μm)” value (mammary epithelial cells [4]; 20 ng/ml progesterone, 24 h) was 6.5% and the “number of large lipid droplets (>1 μm) per cell” value (mammary epithelial cells [4]; 1 and 5 ng/ml progesterone, 24 h, relative to control (0 ng/ml), FIG. 3) was “higher number of large lipid droplets”. For the same compound, the “proportion of large lipid droplets (X≥1 μm)” value (mammary epithelial cells [4]; 1 and 5 ng/ml relative to 20 ng/ml progesterone, FIG. 4, P<0.0001) was “higher”, the “number of lipid droplets” value (mammary epithelial cells [4]; 1 or 20 ng/ml progesterone, 24 h, vs control (no progesterone), P<0.0001) was 3.5 fold and the “distribution of stearic acid (C18:0) between Tg and PL” value (mammary epithelial cells [5]; 1 ng/ml progesterone) was “higher in the PL compartment; also recorded: found primarily in the membrane”. The “distribution of stearic acid between Tg and membrane” value (mammary epithelial cells [5]; 5 ng/ml progesterone) was “mostly incorporated into the Tg” and the “concentration of lignoceric acid (C24:0), Tg vs PL” value (mammary epithelial cells [5]; 5 ng/ml progesterone, P<0.05) was “higher in the PL compartment”.
